Assay results published in US11180495B2 (Abbisko Therapeutics Co., Ltd., priority 2017, dated 2021).
Like-named read-outs stand apart in the source and are kept apart here.

Key:
CSF-1R = target: T1, CSF-1R (Homo sapiens, UniProt P07333); assay: CSF-1R in vitro biochemical kinase study (ADP-Glo assay); conditions: 3.95 nM CSF-1R, 500 μM ATP, 30° C. 60 min, read-out: Enzymatic experiment CSF-1R IC50
T1 construct: 3.95 nM of CSF-1R, 500 μM of ATP and 0.2 mg/mL of polypeptide
Procedure: In the present invention, the inhibitory activity of compounds against the CSF-1R activity was determined by using CSF-1R ADP-Glo assay. The compound-mediated inhibition effect was achieved by inhibiting the production of ADP from consumption of ATP, and the activities of compounds were evaluated by using the ADP-Glo kit (Promega, cat. No. V9101). The specific experimental process was as follows: • 1. The kinase reaction performed in the present invention was carried out in a 384-well plate (Perkinelmer, cat. No. 6007290), and 3.95 nM of CSF-1R, 500 μM of ATP and 0.2 mg/mL of polypeptide (Poly (Glu4, Try1), Sigma, cat. No. P0275) were respectively weighed and added to each well: • 2. following reagents were then added to each well to reach the final reaction system: 40 mM Tris, pH 7.5, 20 mM MgCl2, 0.01% Triton X-100, 0.1 mg/mL BSA, 2.5 mM DTT and 0.1% DMSO; • 3. the reaction was conducted at 30° C. for 60 min; • 4. then an equal volume of stop solution (ADP-Glo) was added to the kinase reaction system; • 5. the mixed solution was incubated at 25° C. for 60 min, and the kinase reaction was then terminated; • 6. a two-fold volume of detection reagent was then added to each well; • 7. the mixed solution was incubated at 25° C. for 30 min; • 8. the compound IC50 value was measured by using a plate reader (Tecan, M1000) and a four-parameter curve was generated in Graphpad Prism. B. KIT/PDGFRA In Vitro Biochemical Kinase Study • 1. Preparation of 1-fold kinase buffer and stop solution • 1.1 1-fold kinase buffer: 50 mM HEPES, pH 7.5, 0.0015% Brij-35. • 1.2 stop solution: 100 mM HEPES, pH 7.5, 0.015% Brij-35, 0.2% Coating Reagent #3 50 mM EDTA • 2. Preparation of compound solution • 2.1 Dilution of compound solution • 1) The final concentration of the compound solution was 40 μM. and the concentration of the prepared stock solution was 50 times of the final concentration, i.e., 2 mM. • 2) 80 μL of 100% DMSO was added to the second well of the 96-well plate, then 20 μL of 10 mM compound solution was added, and thereby 2 mM compound solution was prepared, 60 μL of 100% DMSO was added to other wells, 20 μL of compound was taken from the second well, added to the third well and diluted by 4 times. This serial 4-time dilution was conducted in sequence for the total of 10 concentrations. • 2.2 5-fold compound solution transferred to a reaction plate • 1) 10 μL of solution was taken from each well of the above 96-well plate and added to another 96-well plate, and 90 μL of kinase buffer was added. • 2) 5 μL of solution was taken from the above 96-well plate and added to a 384-well reaction plate. • 2.3 Kinase reaction • 1) KIT/PDGFRA kinase was added to the 1-fold kinase buffer solution to obtain a 2.5-fold kinase solution. • 2) FAM-labeled polypeptide and ATP were added to the 1-fold kinase buffer solution to obtain a 2.5-fold substrate solution. • 3) 10 μL of 2.5-fold kinase solution was added to the 384-well reaction plate, which already contained 5 μL of 5-fold compound in 10% DMSO. And the mixed solution was incubated at room temperature for 10 min. • 4) 10 μL of 2.5-fold substrate solution was added to the 384-well reaction plate. • 5) Kinase reaction and termination: the mixed solution was incubated at 28° C. for a certain period of time, and 25 μL of stop solution was added to stop the reaction. • 2.4 Data reading of Caliper EZ Reader II • 2.5 Calculation of percent inhibition and IC50 • 1) Percent conversion data were copied from the Caliper EZ Reader. • 2) Percent conversion was converted into percent inhibition data, wherein, max referred to percent conversion of the DMSO control, and min referred to percent conversion of the negative control without kinase activity. Percent inhibition=(max−conversion)/(max−min)*100. • 3) The IC50 value was fitted with XLFit excel add-in version 5.4.0.8: Fitting formula: Y=Bottom+(Top−Bottom)/(1+(IC50/X)^HillSlope).

PDGFRA = PDGFRA (Homo sapiens, UniProt P16234); assay: PDGFRA in vitro biochemical kinase study (Caliper EZ Reader); conditions: FAM-labeled polypeptide, Caliper EZ Reader II; read-out: Enzymatic experiment PDGFRA IC50
Procedure: (§1) In the present invention, the inhibitory activity of compounds against the CSF-1R activity was determined by using CSF-1R ADP-Glo assay. The compound-mediated inhibition effect was achieved by inhibiting the production of ADP from consumption of ATP, and the activities of compounds were evaluated by using the ADP-Glo kit (Promega, cat. No. V9101). The specific experimental process was as follows: • 1. The kinase reaction performed in the present invention was carried out in a 384-well plate (Perkinelmer, cat. No. 6007290), and 3.95 nM of CSF-1R, 500 μM of ATP and 0.2 mg/mL of polypeptide (Poly (Glu4, Try1), Sigma, cat. No. P0275) were respectively weighed and added to each well: • 2. following reagents were then added to each well to reach the final reaction system: 40 mM Tris, pH 7.5, 20 mM MgCl2, 0.01% Triton X-100, 0.1 mg/mL BSA, 2.5 mM DTT and 0.1% DMSO; • 3. the reaction was conducted at 30° C. for 60 min; • 4. then an equal volume of stop solution (ADP-Glo) was added to the kinase reaction system; • 5. the mixed solution was incubated at 25° C. for 60 min, and the kinase reaction was then terminated; • 6. a two-fold volume of detection reagent was then added to each well; • 7. the mixed solution was incubated at 25° C. for 30 min; • 8. the compound IC50 value was measured by using a plate reader (Tecan, M1000) and a four-parameter curve was generated in Graphpad Prism. B. KIT/PDGFRA In Vitro Biochemical Kinase Study • 1. Preparation of 1-fold kinase buffer and stop solution • 1.1 1-fold kinase buffer: 50 mM HEPES, pH 7.5, 0.0015% Brij-35. • 1.2 stop solution: 100 mM HEPES, pH 7.5, 0.015% Brij-35, 0.2% Coating Reagent #3 50 mM EDTA • 2. Preparation of compound solution • 2.1 Dilution of compound solution • 1) The final concentration of the compound solution was 40 μM. and the concentration of the prepared stock solution was 50 times of the final concentration, i.e., 2 mM. • 2) 80 μL of 100% DMSO was added to the second well of the 96-well plate, then 20 μL of 10 mM compound solution was added, and thereby 2 mM compound solution was prepared, 60 μL of 100% DMSO was added to other wells, 20 μL of compound was taken from the second well, added to the third well and diluted by 4 times. […]

[1] = test system: M-NFS-60 mouse myeloid leukemia lymphocytes; assay: CSF-1R-related cell proliferation experiment (Cell Titer Glo); type: cell-based; conditions: 72 h, M-NFS-60 cells, 3 days, CTG
Procedure: Functional effects of compounds on cell proliferation were evaluated by using Cell Titer Glo (CTG) study in the present invention. M-NFS-60 mouse myeloid leukemia lymphocytes (cat. No. CCBJ078) from National Institutes For Food and Drug Control were cultured in the incubator under conditions of RPMI 1640 (Gibco, cat. No. 11875-119), 10% fetal bovine serum (Gibco, 10099-141), human 10 ng/mL M-CSF macrophage colony-stimulating factor (R&D, cat. No. MVN0915101), 37° C. and 5% CO2. Since ATP is an index for viable cell metabolism, CTG (Promega, #G7573) reagent is a homogeneous detection method for detecting the number of viable cells in the culture by quantifying ATP. Therefore, compound-mediated inhibition for cell proliferation/survival was evaluated by quantifying ATP in cells, and the specific experimental process was as follows: • 1. The cells were plated into a tissue-culture-medium-treated 96-well plate (Costar #3904) with 5,000 cells/well/80 μL fresh culture medium: • 2. 24 hours later, 10 μL culture medium containing testing compound with 10-fold of final concentration was added to each well; • 3. 10 μL of culture medium containing M-CSF with 10-fold of the final concentration was then added to each well: • 4. dosage effect was evaluated by testing the 3-fold serial dilutions of the compound; • 5. after the cells were incubated for 3 days at 37° C. and 5% CO2, the inhibition on cell survival was quantified after 50 μL of CTG was added and the luminescence assay was performed; • 6. the compound concentration leading to half maximal inhibitory (IC50) and the compound concentration leading to absolute half maximal inhibitory (Absolute IC50) were measured by a plate reader (M1000, Tecan) and a four-parameter curve fit in Graphpad Prism 7. D. CSF-1R-Related Cell Proliferation Experiment

KIT = KIT (Homo sapiens, UniProt P10721); assay: KIT in vitro biochemical kinase study (Caliper EZ Reader); conditions: FAM-labeled polypeptide, Caliper EZ Reader II; read-out: Enzymatic experiment KIT IC50
Procedure: as §1

[2] = absolute half maximal inhibitory concentration, read-out: Cytological experiment CSF-1R Absolute IC50
[3] = read-out: Cytological experiment CSF1R IC50

Sequence of KIT (P10721 26-976): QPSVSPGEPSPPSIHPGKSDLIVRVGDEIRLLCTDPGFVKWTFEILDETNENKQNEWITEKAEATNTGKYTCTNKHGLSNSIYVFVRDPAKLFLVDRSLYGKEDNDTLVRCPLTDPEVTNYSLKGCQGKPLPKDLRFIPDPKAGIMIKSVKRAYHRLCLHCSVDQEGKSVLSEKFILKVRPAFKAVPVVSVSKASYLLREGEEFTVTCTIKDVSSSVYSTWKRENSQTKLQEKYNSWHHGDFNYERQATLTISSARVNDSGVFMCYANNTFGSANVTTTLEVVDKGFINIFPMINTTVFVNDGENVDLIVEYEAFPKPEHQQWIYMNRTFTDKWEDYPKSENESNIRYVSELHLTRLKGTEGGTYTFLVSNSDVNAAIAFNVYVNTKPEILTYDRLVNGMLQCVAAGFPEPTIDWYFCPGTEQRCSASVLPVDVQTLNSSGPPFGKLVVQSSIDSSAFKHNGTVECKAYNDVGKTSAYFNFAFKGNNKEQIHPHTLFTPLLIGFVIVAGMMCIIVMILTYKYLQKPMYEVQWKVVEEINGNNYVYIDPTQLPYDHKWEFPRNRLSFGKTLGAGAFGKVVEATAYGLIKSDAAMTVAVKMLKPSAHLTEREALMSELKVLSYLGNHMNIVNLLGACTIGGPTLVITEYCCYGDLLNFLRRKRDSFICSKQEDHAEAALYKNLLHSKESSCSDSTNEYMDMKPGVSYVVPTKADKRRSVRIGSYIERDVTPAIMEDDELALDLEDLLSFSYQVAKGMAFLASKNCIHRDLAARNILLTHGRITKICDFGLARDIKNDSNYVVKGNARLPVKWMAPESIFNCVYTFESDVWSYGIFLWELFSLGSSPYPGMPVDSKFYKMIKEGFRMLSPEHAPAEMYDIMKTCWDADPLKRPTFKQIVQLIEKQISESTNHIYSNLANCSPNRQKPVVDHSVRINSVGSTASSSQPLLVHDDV
T1 sequence (P07333 20-972): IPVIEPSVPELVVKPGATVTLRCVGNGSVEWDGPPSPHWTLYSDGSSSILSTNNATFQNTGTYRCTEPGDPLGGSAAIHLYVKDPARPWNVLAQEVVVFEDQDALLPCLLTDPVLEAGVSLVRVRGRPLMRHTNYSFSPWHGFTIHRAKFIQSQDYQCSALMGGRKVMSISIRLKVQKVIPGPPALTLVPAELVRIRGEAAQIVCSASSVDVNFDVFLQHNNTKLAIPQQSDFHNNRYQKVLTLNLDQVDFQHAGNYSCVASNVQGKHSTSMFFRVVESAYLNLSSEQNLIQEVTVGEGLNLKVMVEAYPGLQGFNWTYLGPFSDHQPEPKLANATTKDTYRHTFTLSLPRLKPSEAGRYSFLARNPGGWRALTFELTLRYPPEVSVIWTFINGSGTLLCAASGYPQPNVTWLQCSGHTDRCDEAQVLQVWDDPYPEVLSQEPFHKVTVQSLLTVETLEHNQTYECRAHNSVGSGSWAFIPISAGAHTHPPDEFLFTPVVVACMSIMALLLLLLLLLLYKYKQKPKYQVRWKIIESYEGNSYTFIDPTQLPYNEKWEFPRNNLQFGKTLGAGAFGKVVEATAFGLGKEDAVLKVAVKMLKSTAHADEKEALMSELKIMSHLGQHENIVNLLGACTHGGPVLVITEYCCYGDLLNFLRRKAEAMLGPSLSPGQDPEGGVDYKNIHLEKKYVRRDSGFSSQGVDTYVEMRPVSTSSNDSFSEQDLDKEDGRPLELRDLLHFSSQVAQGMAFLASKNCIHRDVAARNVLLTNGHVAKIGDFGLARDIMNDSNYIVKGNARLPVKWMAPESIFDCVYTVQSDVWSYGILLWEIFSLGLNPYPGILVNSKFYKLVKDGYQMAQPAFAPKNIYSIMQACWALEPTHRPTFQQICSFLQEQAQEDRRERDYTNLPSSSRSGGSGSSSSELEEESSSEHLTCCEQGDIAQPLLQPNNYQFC
Sequence of PDGFRA (P16234 24-1089): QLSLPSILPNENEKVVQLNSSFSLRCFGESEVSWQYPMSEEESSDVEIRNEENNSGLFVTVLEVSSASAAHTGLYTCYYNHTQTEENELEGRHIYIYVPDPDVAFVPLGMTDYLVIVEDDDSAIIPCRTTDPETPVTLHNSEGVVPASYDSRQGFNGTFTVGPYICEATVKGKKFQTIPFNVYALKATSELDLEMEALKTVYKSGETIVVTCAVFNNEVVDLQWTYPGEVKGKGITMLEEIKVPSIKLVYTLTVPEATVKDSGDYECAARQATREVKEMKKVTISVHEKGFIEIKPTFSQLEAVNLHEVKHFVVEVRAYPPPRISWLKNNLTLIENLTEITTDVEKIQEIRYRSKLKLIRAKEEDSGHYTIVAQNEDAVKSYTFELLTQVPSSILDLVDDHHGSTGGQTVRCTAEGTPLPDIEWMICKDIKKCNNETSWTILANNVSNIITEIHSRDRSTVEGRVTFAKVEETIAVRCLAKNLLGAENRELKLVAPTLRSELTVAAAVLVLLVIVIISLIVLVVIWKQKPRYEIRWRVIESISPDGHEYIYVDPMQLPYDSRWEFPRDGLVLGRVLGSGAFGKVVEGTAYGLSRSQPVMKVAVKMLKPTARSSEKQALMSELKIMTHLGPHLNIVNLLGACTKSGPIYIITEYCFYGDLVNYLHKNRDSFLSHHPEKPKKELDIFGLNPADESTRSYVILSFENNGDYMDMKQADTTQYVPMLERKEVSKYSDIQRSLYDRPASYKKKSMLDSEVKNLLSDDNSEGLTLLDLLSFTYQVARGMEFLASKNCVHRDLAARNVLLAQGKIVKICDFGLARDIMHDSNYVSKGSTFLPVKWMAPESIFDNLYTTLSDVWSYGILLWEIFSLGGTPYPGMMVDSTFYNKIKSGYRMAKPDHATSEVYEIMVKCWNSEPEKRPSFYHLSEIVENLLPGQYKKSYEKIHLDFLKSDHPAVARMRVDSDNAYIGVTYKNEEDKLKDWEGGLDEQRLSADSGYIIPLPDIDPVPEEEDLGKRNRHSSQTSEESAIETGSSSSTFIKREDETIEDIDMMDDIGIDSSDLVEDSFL

IC50 (CSF-1R) [µM]	IC50 (PDGFRA) [µM]	IC50 [1, 2] [µM]	IC50 [1, 3] [µM]	IC50 (KIT) [µM]	Compound
0.0274	6.91	0.0188	0.0465	0.248	Cc1nc(-c2cnc(NC(C)C)[nH]c2=O)ccc1Cc1c[nH]c2ncccc12 [Example 1, 5-(5-((1H-pyrrolo[2,3-b]pyridin-3-yl)methyl)-6-methylpyridin-2-yl)-2-(isopropylamino)pyrimidin-4(3H)-one]
0.0321	0.681	0.0315	0.0402	0.0137	Cc1nc(-c2cnc(NC(C)C)n(C)c2=O)ccc1Cc1c[nH]c2ncc(Cl)cc12 [Example 10, 5-(5-((5-chloro-1H-pyrrolo[2,3-b]pyridin-3-yl)methyl)-6-methylpyridin-2-yl)-2-(isopropylamino)-3-methylpyrimidin-4(3H)-one]
